tested on: human σ1 receptor and human μ-opioid receptor; assay: Human σ1 receptor radioligand assay and human μ-opioid receptor radioligand assay (μ and σ1 dual binding); parameters: key to μ and σ1 dual binding: +: Both Ki-μ and Ki-σ1>=500 nM; ++: One Ki<500 nM while the other Ki is >=500 nM; +++: Both Ki-μ and Ki-σ1<500 nM; ++++: Both Ki-μ and Ki-σ1<100 nM; details: not given

SMILES | μ and σ1 dual binding | Ki [nM]
COCCN(C(=O)CN1CCC2(CC1)c1ccccc1CCN2C)C(C)C [Example 108, N-isopropyl-N-(2-methoxyethyl)-2-(2-methyl-3,4-dihydro-2H-spiro[isoquinoline-1,4′-piperidine]-1′-yl)acetamide] | ++ | 
CCC(CC)N(CC)C(=O)CN1CCC2(CC1)c1ccccc1CCN2C [Example 109, N-ethyl-2-(2-methyl-3,4-dihydro-2H-spiro[isoquinoline-1,4′-piperidine]-1′-yl)-N-(pentan-3-yl)acetamide] | ++ | 
CCC(CC)N(C)C(=O)CN1CCC2(CC1)c1ccccc1CCN2C [Example 111, N-methyl-2-(2-methyl-3,4-dihydro-2H-spiro[isoquinoline-1,4′-piperidine]-1′-yl)-N-(pentan-3-yl)acetamide] |  | < 500
CN(CC1CC1)C(=O)CN1CCC2(CC1)c1ccccc1CCN2C [Example 112, N-(cyclopropylmethyl)-N-methyl-2-(2-methyl-3,4-dihydro-2H-spiro[isoquinoline-1,4′-piperidine]-1′-yl)acetamide] |  | < 500
CN1CCc2ccccc2C12CCN(CC(O)c1ccncc1F)CC2 (stereo not shown) [Example 113, 1-(3-fluoropyridin-4-yl)-2-(2-methyl-3,4-dihydro-2H-spiro[isoquinoline-1,4′-piperidine]-1′-yl)ethanol] |  | < 500
CC1CCN(C(=O)CN2CCC3(CC2)c2ccccc2CCN3C)CC1 [Example 114, 2-(2-Methyl-3,4-dihydro-2H-spiro[isoquinoline-1,4′-piperidine]-1′-yl)-1-(4-methylpiperidin-1-yl)ethanone] |  | < 500
CN(Cc1ccccn1)C(=O)CN1CCC2(CC1)c1ccccc1CCN2C [Example 116, N-methyl-2-(2-methyl-3,4-dihydro-2H-spiro[isoquinoline-1,4′-piperidine]-1′-yl)-N-(pyridin-2-ylmethyl)acetamide] | ++ | 
CN1CCc2ccccc2C12CCN(CCc1cccc(N)c1)CC2 [Example 117, 3-[2-(2-Methyl-3,4-dihydro-2H-spiro[isoquinoline-1,4′-piperidin]-1′-yl)-ethyl]-phenylamine] |  | < 100
CN1CCc2ccccc2C12CCN(CCc1cccc(NS(C)(=O)=O)c1)CC2 [Example 118, N-(3-(2-(2-Methyl-3,4-dihydro-2H-spiro[isoquinoline-1,4′-piperidin]-1′-yl)ethyl)phenyl)methanesulfonamide] |  | < 100
CC(=O)Nc1cccc(CCN2CCC3(CC2)c2ccccc2CCN3C)c1 [Example 119, N-{3-[2-(2-Methyl-3,4-dihydro-2H-spiro[isoquinoline-1,4′-piperidin]-1′-yl)-ethyl]-phenyl}-acetamide] |  | < 500
CN1CCc2ccccc2C12CCN(CC(O)c1ccccc1)CC2 (stereo not shown) [Example 120, 2-(2-Methyl-3,4-dihydro-2H-spiro[isoquinoline-1,4′-piperidin]-1′-yl)-1-phenyl-ethanol] |  | < 500
CN1CCc2ccccc2C12CCN(CCc1ccncc1)CC2 [Example 121, 2-Methyl-1′-(2-(pyridin-4-yl)ethyl)-3,4-dihydro-2H-spiro[isoquinoline-1,4′-piperidine]] |  | < 500
COCCN1CCc2ccccc2C12CCN(CCc1ccccc1)CC2 [Example 122, 2-(2-Methoxyethyl)-1′-phenethyl-3,4-dihydro-2H-spiro[isoquinoline-1,4′-piperidine]] |  | < 500
OCCN1CCc2ccccc2C12CCN(CCc1ccccc1)CC2 [Example 123, 2-(1′-Phenethyl-3,4-dihydro-2H-spiro[isoquinoline-1,4′-piperidin]-2-yl)ethanol] |  | < 100
OCCN1CCc2ccccc2C12CCN(CCc1cccnc1)CC2 [Example 125, 2-[1′-(2-Pyridin-3-yl-ethyl)-3,4-dihydro-spiro[isoquinoline-1,4′-piperidin]-2-yl]-ethanol] |  | < 500
O=C(CN1CCC2(CC1)c1ccccc1CCN2CCO)N1CCCCC1 [Example 126, 2-(2-(2-Hydroxyethyl)-3,4-dihydro-2H-spiro[isoquinoline-1,4′-piperidine]-1′-yl)-1-(piperidin-1-yl)ethanone] | ++ | 
OCCN1CCc2ccccc2C12CCN(CCc1cncc(F)c1)CC2 [Example 127, 2-(1′-(2-(5-fluoropyridin-3-yl)ethyl)-3,4-dihydro-2H-spiro[isoquinoline-1,4′-piperidin]-2-yl)etanol] |  | < 500
OCCN1CCc2ccccc2C12CCN(CCc1cncc(C(F)(F)F)c1)CC2 [Example 128, 2-(1′-(2-(5-(trifluoromethyl)pyridin-3-yl)ethyl)-3,4-dihydro-2H-spiro[isoquinoline-1,4′-piperidine]-2-yl)ethanol] |  | < 500
OCCN1CCc2ccccc2C12CCN(CCc1ccncc1)CC2 [Example 129, 2-(1′-(2-(pyridin-4-yl)ethyl)-3,4-dihydro-2H-spiro[isoquinoline-1,4′-piperidine]-2-yl)ethanol] | ++ | 
OCCN1CCc2ccccc2C12CCN(CCc1ccncc1F)CC2 [Example 130, 2-(1′-(2-(3-Fluoropyridin-4-yl)ethyl)-3,4-dihydro-2H-spiro[isoquinoline-1,4′-piperidine]-2-yl)ethanol] |  | < 500
CN1CCc2cc(O)ccc2C12CCN(CCc1ccccc1)CC2 [Example 131, 2-Methyl-1′-phenethyl-3,4-dihydro-2H-spiro[isoquinoline-1,4′-piperidin]-6-ol] |  | < 100
FC(F)(F)CN1CCc2ccccc2C12CCN(CCc1ccccc1)CC2 [Example 133, 1′-Phenethyl-2-(2,2,2-trifluoroethyl)-3,4-dihydro-2H-spiro[isoquinoline-1,4′-piperidine]] |  | < 100
O=C(CN1CCC2(CC1)c1ccccc1CCN2CC(F)(F)F)N1CCOCC1 [Example 134, 1-Morpholino-2-(2-(2,2,2-trifluoroethyl)-3,4-dihydro-2H-spiro[isoquinoline-1,4′-piperidine]-1′-yl)ethanone] | ++ | 
O=C(CN1CCC2(CC1)c1ccccc1CCN2CC(F)(F)F)N1CCCCC1 [Example 135, 1-(piperidin-1-yl)-2-(2-(2,2,2-trifluoroethyl)-3,4-dihydro-2H-spiro[isoquinoline-1,4′-piperidine]-1′-yl)ethanone] | ++ | 

same assay, conditions: combined class for Ki-μ ([3H]-DAMGO, CHO-K1 membranes) and Ki-σ1 ([3H](+)-pentazocine, HEK-293 membranes)

SMILES | Ki [nM]
CC(C)CN(C(=O)CN1CCC2(CC1)c1ccccc1CCN2C)C(C)C [Example 110, N-isobutyl-N-isopropyl-2-(2-methyl-3,4-dihydro-2H-spiro[isoquinoline-1,4′-piperidine]-1′-yl)acetamide] | ≥ 500
C[C@@H]1CN(C(=O)CN2CCC3(CC2)c2ccccc2CCN3C)C[C@H](C)O1 [Example 115, 1-((2S,6R)-2,6-dimethylmorpholino)-2-(2-methyl-3,4-dihydro-2H-spiro[isoquinoline-1,4′-piperidine]-1′-yl)ethanone] | ≥ 500
COCCN1CCc2ccccc2C12CCN(CCc1cccnc1)CC2 [Example 124, 2-(2-Methoxyethyl)-1′-(2-(pyridin-3-yl)ethyl)-3,4-dihydro-2H-spiro[isoquinoline-1,4′-piperidine]] | ≥ 500
O=C(N1CCc2ccccc2C12CCN(CCc1ccccc1)CC2)C(F)(F)F [Example 132, 2,2,2-Trifluoro-1-(1′-phenethyl-3,4-dihydro-2H-spiro[isoquinoline-1,4′-piperidine]-2-yl)ethanone] | ≥ 500

Source: patent publication US10407428B2, “Spiro-isoquinoline-1,4′-piperidine compounds having multimodal activity against pain” (ESTEVE PHARMACEUTICALS, S.A., priority 2014, dated 2019)
